{"source": "BindingDB's records for doi:10.1021/acsmedchemlett.9b00575", "about": "(Duke University, 2020)", "key": {"D(1A) dopamine receptor": {"molecular_target": "D(1A) dopamine receptor (Homo sapiens, UniProt P21728)", "sequence (P21728 whole entry)": "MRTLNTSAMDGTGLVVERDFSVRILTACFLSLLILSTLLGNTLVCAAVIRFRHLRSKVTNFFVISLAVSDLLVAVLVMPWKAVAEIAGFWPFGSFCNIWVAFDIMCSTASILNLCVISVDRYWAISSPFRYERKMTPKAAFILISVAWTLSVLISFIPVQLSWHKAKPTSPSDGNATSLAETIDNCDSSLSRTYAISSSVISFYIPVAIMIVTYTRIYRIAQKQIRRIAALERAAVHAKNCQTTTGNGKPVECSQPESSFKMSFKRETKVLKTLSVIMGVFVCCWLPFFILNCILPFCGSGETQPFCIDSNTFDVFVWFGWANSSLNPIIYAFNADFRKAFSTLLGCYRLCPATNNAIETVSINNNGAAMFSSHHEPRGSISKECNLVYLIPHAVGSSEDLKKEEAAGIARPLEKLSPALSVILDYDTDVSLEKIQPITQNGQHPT", "assay": "Agonist activity at D1R (unknown origin) transfected in human HEK293T cells assessed as increase in cAMP accumulation incubated for 2 hrs by cAMP Glo-sensor assay"}, "D(2) dopamine receptor": {"molecular_target": "D(2) dopamine receptor (Homo sapiens, UniProt P14416)", "sequence (P14416 whole entry, the tested form may be a part)": "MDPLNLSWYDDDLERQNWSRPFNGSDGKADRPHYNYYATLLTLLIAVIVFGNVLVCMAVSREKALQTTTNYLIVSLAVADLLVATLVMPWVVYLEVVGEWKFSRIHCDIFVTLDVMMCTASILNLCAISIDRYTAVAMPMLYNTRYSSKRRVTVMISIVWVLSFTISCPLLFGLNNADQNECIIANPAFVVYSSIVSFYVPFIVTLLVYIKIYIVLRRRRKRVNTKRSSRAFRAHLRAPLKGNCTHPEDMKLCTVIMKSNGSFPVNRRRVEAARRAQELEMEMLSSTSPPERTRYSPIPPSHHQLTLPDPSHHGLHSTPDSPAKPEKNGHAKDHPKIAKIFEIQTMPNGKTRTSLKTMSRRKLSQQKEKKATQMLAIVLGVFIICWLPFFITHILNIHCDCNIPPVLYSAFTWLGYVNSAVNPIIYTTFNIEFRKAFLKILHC", "assay": "Agonist activity at C-terminal RLuc8-fused D2 long receptor (unknown origin) transfected in human HEK293T cells co-expressing N-terminal Venus-tagged beta-arrestin2 assessed as increase in beta-arrestin2 recruitment measured after 5 mins in presence of coelenterazine H by BRET assay"}}, "note": "pEC50: −log10 of the molar value."}
{"smiles": "CN1CCc2cccc3c2[C@H]1Cc1ccc2c(c1-3)OCO2", "values": [{"measurement": "pEC50", "setting": "D(1A) dopamine receptor", "value": 7.00}]}
{"smiles": "CC(=O)Oc1c(Br)cc2c(c1OC(C)=O)-c1cccc3c1[C@@H](C2)N(C)CC3", "values": [{"measurement": "pEC50", "setting": "D(2) dopamine receptor", "value": 5.90}]}
